Columns and labels:
goosegrass = test: Test D goosegrass; assay type: in vivo, Eleusine indica; details: Postemergence, 0 to 100 scale
common pursiane = test: Test D common purslane; assay type: in vivo, Portulaca oleracea; details: Postemergence, 0 to 100 scale
Green foxtail [1] = test: Test D green foxtail; assay type: in vivo; details: Rate 250 g/ha; Postemergence; 0 to 100 scale
pitted morningglory = test: Test D pitted morningglory; assay type: in vivo, Ipomoea lacunosa; details: Postemergence, 0 to 100 scale
common ragweed = test: Test D common ragweed; assay type: in vivo, Ambrosia elatior; details: Postemergence, 0 to 100 scale
Green foxtail [2] = test: Test D green foxtail; assay type: in vivo; details: Postemergence, 0 to 100 scale, 0 no injury, 100 complete control
Green foxtail [3] = test: Test D green foxtail; assay type: in vivo; details: Postemergence, 0 to 100 scale, 0 no injury, 100 complete control; remark: listed apart in the source
itchgrass = test: Test D itchgrass; assay type: in vivo, Rottboellia exaltata; details: Postemergence, 0 to 100 scale
Green foxtail [4] = test: Test D green foxtail; assay type: in vivo; details: Postemergence, 0 to 100 scale, 0 no injury, 100 complete control; remark: listed apart in the source
tall mallow = test: Test D tall mallow; assay type: in vivo, Malva sylvestris; details: Postemergence, 0 to 100 scale
sandbur = test: Test D sandbur; assay type: in vivo, Cenchrus echinatus; details: Postemergence, 0 to 100 scale
[5] = Rate 16 g/ha, 0 no injury, 100 complete control
[6] = Rate 32 g/ha, 0 no injury, 100 complete control
[7] = Rate 64 g/ha, 0 no injury, 100 complete control
[8] = Rate 125 g/ha, 0 no injury, 100 complete control

## CC(C)N(C(=O)n1oc(=O)n(C2(C)CC2)c1=O)c1ccccc1 [Compound 360]
goosegrass; [5]
  Plant response rating, Goosegrass: 20
goosegrass; [6]
  Plant response rating, Goosegrass: 100
goosegrass; [7]
  Plant response rating, Goosegrass: 100
goosegrass; [8]
  Plant response rating, Goosegrass: 100
goosegrass; Rate 250 g/ha
  Plant response rating, Goosegrass: 100
Common pursiane; [5]
  Plant response rating, C. purslane: 0
Common pursiane; [6]
  Plant response rating, C. purslane: 0
Common pursiane; [7]
  Plant response rating, C. purslane: 0
Common pursiane; [8]
  Plant response rating, C. purslane: 0
Common pursiane; Rate 250 g/ha
  Plant response rating, C. purslane: 0
Green foxtail [1]
  Plant response rating, Green foxtail: 100
Pitted morningglory; [5]
  Plant response rating, P. morninglory: 0
Pitted morningglory; [6]
  Plant response rating, P. morninglory: 0
Pitted morningglory; [7]
  Plant response rating, P. morninglory: 0
Pitted morningglory; [8]
  Plant response rating, P. morninglory: 0
Pitted morningglory; Rate 250 g/ha
  Plant response rating, P. morninglory: 10
Common ragweed; [5]
  Plant response rating, C. ragweed: 0
Common ragweed; [6]
  Plant response rating, C. ragweed: 0
Common ragweed; [7]
  C. ragweed plant response rating: 30
Common ragweed; [8]
  Plant response rating, C. ragweed: 30
Common ragweed; Rate 250 g/ha
  Plant response rating, C. ragweed: 30
Green foxtail [2]; Rate 16 g/ha
  Plant response rating, Green foxtail: 0
Green foxtail [2]; Rate 32 g/ha
  Plant response rating, Green foxtail: 70
Green foxtail [3]; Rate 64 g/ha
  Green foxtail plant response rating: 100
Green foxtail [3]; Rate 125 g/ha
  Green foxtail plant response rating: 100
itchgrass; [5]
  Plant response rating, Itchgrass: 0
itchgrass; [6]
  Plant response rating, Itchgrass: 0
itchgrass; [7]
  Plant response rating, Itchgrass: 0
itchgrass; [8]
  Plant response rating, Itchgrass: 20
itchgrass; Rate 250 g/ha
  Plant response rating, Itchgrass: 30
Green foxtail [4]; Rate 16 g/ha
  Plant response rating, Green foxtail: 0
Green foxtail [4]; Rate 32 g/ha
  Plant response rating, Green foxtail: 70
Tall mallow; [5]
  Plant response rating, Tall Mallow: 0
Tall mallow; [6]
  Plant response rating, Tall Mallow: 0
Tall mallow; [7]
  Tall Mallow plant response rating: 40
Tall mallow; [8]
  Tall Mallow plant response rating: 60
Tall mallow; Rate 250 g/ha
  Plant response rating, Tall Mallow: 90
sandbur; [5]
  Plant response rating, Sandbur: 0
sandbur; [6]
  Plant response rating, Sandbur: 90
sandbur; [7]
  Sandbur plant response rating: 50
sandbur; [8]
  Sandbur plant response rating: 100
sandbur; Rate 250 g/ha
  Plant response rating, Sandbur: 100
